Laboratory results as given in patent publication US10471094B2, “Methods for reducing ischemia-reperfusion injury via targeted control of blood gases” (Cedars-Sinai Medical Center, priority 2013, dated 2019).

Tested on: Canines
Experiment: Canine ischemia/reperfusion (I/R) protocol, 3 hours no-flow LAD occlusion then reperfusion, MRI at week 8
Assay type: in vivo
Source text: Canines (n=9) underwent left thoracotomy at the 4th intercostal space and a hydraulic occluder was secured around the left-anterior descending coronary artery after the first principal diagonal. Subsequently a Doppler flow probe was affixed distal to the hydraulic occluder and animals were allowed to recover for 7 days. Following recovery, animals were subjected to ischemia/reperfusion (I/R) protocol and studied with magnetic resonance imaging. The ischemia protocol consisted of inflicting no-flow ischemia by inflating the hydraulic occlude (confirmed by the Doppler flow velocity) for 3 hours. Subsequently all animals were reperfused by deflation of the hydraulic occluder.

[1] = 100% O2 versus room air during reperfusion, week 8

O=O [100% O2, oxygen]
chronic scar size larger versus animals breathing room air during reperfusion [1]: approximately 25% | left ventricular ejection fraction (LVEF) reduced versus animals breathing room air during reperfusion [1]: 12% | LVEF at week 8 post MI (gas breathed during reperfusion, 3.0 T MRI, week 8 post I/R injury, left-ventricular ejection fraction): 39.7 +/− 4.9 | Scar Volume at week 8 post MI (% LV) (gas breathed during reperfusion, 3.0 T MRI, week 8 post I/R injury, scar volume as percentage of left ventricular volume): 15.0 +/− 3.8 % LV
